Laboratory results published in US6376211B1, “Agents and methods for inhibiting F1/F0 ATPase” (XOMA Technology Ltd., priority 1999, dated 2002).

How the values were obtained:
[1] = target: T1, mammalian mitochondrial ATP synthase; assay: Phosphatase activity of ATP synthase in mitochondrial membrane preparations (mouse liver); assay type: biochemical; settings: 1.35 μM rBPI21, 0.082 and 0.482 μM XMP.391, 0.076 and 0.553 μM XMP.416
T1 construct: ATP synthase enzymic activity in mitochondrial preparations; from tissue; host or cells: mouse liver mitochondria, deoxycholate-lysed membrane pellet
Description: The effect of BPI protein products on ATP synthase enzymic activity in mitochondrial preparations was evaluated. Mitochondrial membrane preparations were prepared as follows. Male laboratory mice (Mus musculus) were sacrificed by cervical dislocation and their livers were immediately excised. The gall bladder and connective tissues were removed and the livers were washed in 0.25 M sucrose. Wet liver weight was determined after blotting the washed liver on absorbent paper. All subsequent steps of the fractionation procedure were performed on ice. The weighted livers were then homogenized with a Potter Elvehjem tissue homogenizer and six passes of a teflon pestle in 9 volumes of 0.25 M sucrose with protease inhibitors (2 μg/mL pepstatin A, 2 μg/mL aprotinin and 1 mM phenylmethylsulfonyl fluoride (PMSF). Liver homogenates were then centrifuged in a Beckman (Fullerton, Calif.) J2-21 centrifuge for 10 minutes at 600×g. The 600×g pellet (nuclei, unbroken cells and connective tissue) was discarded and the supernatant was subjected to further centrifugation. The 600×g supernatant was centrifuged at 7000×g for 10 minutes to yield a crude mitochondrial pellet.
Crude mitochondria were resuspended in 3 volumes of the original liver weight with 0.25 M sucrose and centrifuged at 7000×g for 10 minutes. The supernatant was discarded and the procedure was repeated. […]

[2] = test system: whole cells; assay: Metabolic oxidation-reduction indicator dye (Alamar Blue) assay of whole cells (general description); assay type: cell-based; settings: at a less than fully cytotoxic concentration
From the text: (§1) The effect of test compounds on ATP synthase activity of whole cells can also optionally be assayed using any membrane potential indicator dye or metabolic oxidation-reduction indicator dye known in the art. See Loew, Chapter 8 in Biomembrane Electrochemistry, Blank and Vodyanoy, eds., American Chemical Society, Washington, DC (1994), pages 151-173. Particularly preferred dyes are membrane potential dyes such as DiOC6(3), JC-1, rhodamine 123, or MitoTracker® reduced dyes [Molecular Probes, Eugene, Oreg.]. […] Other preferred dyes are metabolic oxidation-reduction indicator dyes such as Alamar Blue™ [AccuMed Int'l, Westlake, Ohio]. […] See U.S. Provisional Application Ser. No. 60/143,290 filed Jul. 12, 1999 and corresponding co-owned, concurrently filed U.S. application Ser. No. 09/543,955, both of which are incorporated herein by reference and U.S. Provisional Application Ser. No. 60/143,485 filed Jul. 12, 1999 and corresponding U.S. application Ser. No. 09/404,926 filed Sep. 24, 1999 and International Application No. PCT/US99/22361 filed Sep. 24, 1999, all of which are incorporated herein by reference. Iterative screening for compound selection may employ one or combination of assays for testing.

[3] = target: E. coli ATP synthase; settings: bacterial membrane preparations; about ... and higher
Description: The effect of antibacterial BPI protein products on the ATP synthesis activity of an E. coli ATP synthase was determined as follows. Bacterial membranes were prepared as follows. A 400 mL culture of E. coli was grown overnight in TSB at 37° C. with shaking. Cells were harvested by centrifugation for 10 minutes at 1000×g, followed by washing with 20 mL of PBS and recentrifugation. Cells were resuspended in 4 ml of 25 mM HEPES, pH 7.6, 0.1 M KCl, 0.1 M EDTA, 12.5 mM MgCl2, 10% glycerol, 0.1% NP40. Then 50 μl of lysozyme (50 mg/ml) was added and the cells were incubated for 30 minutes on ice. Cells were disrupted by sonication in 3×30-second pulses. Cells were placed on ice between pulses. DNAse I was added to a 10 μg/mL final concentration (GIBCO Life Technologies, Gaithersburg, Md.) and the homogenate was left on ice for 30 minutes. […] The final pellet was resuspended in 2 mL 10 mM Tris-HC1, pH 7.0, 0.1 mM EDTA, 20% glycerol and protein concentration was determined by standard Bradford assay.
In a 96 well plate (Microlite 1, DYNEX Technologies, Chantilly Va.), 25 μg bacterial membranes were diluted into 100 μl of 55.5 mM Tris-HC1, pH 7.8, 0.222 mM MgSO4 plus the compound to be tested (XMP.391 (SEQ ID NO: 4) and rBPI21 at concentrations ranging from 40 μg/mL to 0.625 μg/mL). […] Assays were read in Endpoint mode with 30 reads per well.

[4] = test system: E. coli; assay: Metabolic oxidation-reduction indicator dye Alamar Blue assay; assay type: cell-based
Description: (§2) The effect of antibacterial BPI protein products on the activity of bacterial ATP synthase as measured by a metabolic oxidation-reduction indicator dye and a membrane potential indicator dye was determined as described in Example 2 of U.S. Provisional Application Ser. No. 60/143,290 filed Jul. 12, 1999 and corresponding co-owned, concurrently filed U.S. application Ser. No. 09/543,955, both of which are incorporated herein by reference and Example 9 of U.S. Provisional Application Ser. No. 60/143,485 filed Jul. 12, 1999 and corresponding U.S. application Ser. No. 09/404,926 filed Sep. 24, 1999 and International Application No. PCT/US99/22361 filed Sep. 24, 1999, all of which are incorporated herein by reference.

[5] = test system: E. coli O111:B4; assay: In vitro bactericidal activity; assay type: cell-based
[6] = test system: whole cells; assay: Membrane potential indicator dye assay of whole cells (general description); assay type: cell-based; settings: retention of the dye notwithstanding onset of loss of viability at the same concentration
From the text: as §1

[7] = test system: E. coli O111:B4; assay: Membrane potential indicator dye DiOC6(3) assay; assay type: cell-based
Description: as §2

[8] = test system: bacterial growth; settings: cited from earlier work

Substance | inhibition of phosphatase activity of ATP synthase [1] | pattern of metabolic oxidation-reduction activity relative to control cells [2] | concentration at which synthesis of ATP from ADP is inhibited in a dose-dependent manner [3] [µg/mL] | apparent metabolic activity relative to untreated controls [4] | in vitro bactericidal activity [5] | pattern of accumulation of membrane potential dye in cells [6] | accumulation and retention of membrane potential dye [7] | concentration required to produce a therapeutic effect [8] [µg/mL]
XMP.391: BPI-derived peptide, SEQ ID NO: 4 (KVGWLIQLFHKK) | inhibited the phosphatase activity | increased metabolic oxidation-reduction activity relative to control cells | ≥ 1 | apparent increased metabolic activity |  |  |  | 
XMP.365: BPI-derived peptide, SEQ ID NO: 3; structure described in U.S. Pat. No. 5,858,974 (KWLIQLFHKK) |  | increased metabolic oxidation-reduction activity relative to control cells |  | apparent increased metabolic activity | has in vitro bactericidal activity against this strain | accumulation in cells of membrane potential dye in a peptide concentration-dependent manner | produced an accumulation and retention of the dye despite cell death | 
XMP.416: BPI-derived peptide, SEQ ID NO: 5 (KWLIQLFHKK) | inhibited the phosphatase activity | increased metabolic oxidation-reduction activity relative to control cells |  |  |  |  |  | 
gentamicin |  |  |  |  |  |  |  | 8
